The values that follow come from patent publication US20090281133A1, “Heterocyclic antiviral compounds” (Roche Palo Alto LLC, priority 2008, published 2009).

B1: RANTES: CC chemokine, naturally occurring chemokine that can stimulate the CCR5 receptor (protein, UniProt P13501 24-91, looked up)
C-C motif chemokine 5: SPYSSDTTPCCFAYIARPLPRAHIKEYFYTSGKCSNPAVVFVTRKNRQVCANPEKKWVREYINSLEMS

For one data set, the system named is collagen induced arthritis.
Assay: not given
The conditions noted are these: collagen-induced arthritis model; cited from earlier work.
Turning to `Cc1ccc(-c2ccc3c(c2)C=C(C(=O)Nc2ccc(C[N+](C)(C)C4CCOCC4)cc2)CCC3)cc1.[Cl-]` [TAK-779], the “incidence and severity of arthritis” value is “reduce both the incidence and severity of arthritis”; the “infiltration of inflammatory CCR5+ T-cells into the joint” value is “inhibited”.

Tested on in the next data set: not given
Assay: not given
Settings: not given
Consider `CCCCC1CN(CC2CCOCC2)C(=O)CC12CCN(C1(C)CCN(C(=O)c3c(C)ncnc3C)CC1)CC2` (centres unmarked) [I-4], for which the melting point (in general, the temperature, or range, at which the solid turns liquid) lay within 92.8 to 100.1 °C.

The test system of a further data set is CCR5-mediated fusion of Hela-R5 cells with CEM-NKr-CCR5-Luc cells. Description: CCR5-mediated cell-cell fusion (CCF) assay. The conditions noted are these: luciferase readout, 24 hrs co-culture. Format: cell-based. The protocol:
CCF assay was performed as described before (C. Ji, J. Zhang, N. Cammack and S. Sankuratri, J. Biomol. Screen. 2006 11(6):652-663). Hela-R5 cells (express gp160 from R5-tropic virus and HIV-1 Tat) were plated in 384 well white culture plates (BD Bioscience, Palo Alto, Calif.) at 7.5×10^3 cells per well in phenol red-free Dulbecco's Modified Eagle Medium (DMEM) supplemented with 10% FBS, 1× Pen-Strep, 300 μg/mL G418, 100 μg/mL hygromycin, and 1 μg/mL Doxycycline (Dox) (BD Bioscience, Palo Alto, Calif.), using Multimek (Beckman, Fullerton, Calif.) and incubated at 37° C. overnight to induce the expression of gp160. Ten μL diluted compounds in medium containing 5% DMSO were added to the cells, followed by the addition of CEM-NKr-CCR5-Luc (obtained from NIH AIDS Research & Reference Reagents Program) that expresses CD4 and CCR5 and carries a HIV-2 long terminal repeat (LTR)-driven luciferase reporter gene at 1.5×10^4 cells/15 μL/well and incubated for 24 hrs. At the end of co-culture, 15 μL of Steady-Glo luciferase substrate was added into each well, and the cultures were sealed and gently shaken for 45 min. The luciferase activity were measured for 10 sec per well as luminescence by using 16-channel TopCount NXT (PerkinElmer, Shelton, Conn.) with 10 min dark adaptation and the readout is count per second (CPS). […]
In the case of `CCCCC1CN(C[C@H]2CC[C@H](OCC)CC2)C(=O)CC12CCN(C1(C)CCN(C(=O)c3c(C)ncnc3C)CC1)CC2` (mixture of isomers) [I-1, 5-Butyl-9-[1-(4,6-dimethyl-pyrimidine-5-carbonyl)-4-methyl-piperidin-4-yl]-3-(4-ethoxy-cyclohexylmethyl)-3,9-diaza-spiro[5.5]undecan-2-one], the IC50 (as a rule, the point on the concentration scale where inhibition reaches its midpoint) is under 2.5 nM.

The test system of another data set is HIV.
Assay: not given
The conditions noted are these: cited from earlier work.
Turning to B1, the “block of HIV entry into the cells” value is “block HIV entry into the cells”.

The target in a further data set is T1, Human CCR5 receptor (Homo sapiens, UniProt P51681).
T1 construct: expressed in transfected cells
T1 sequence (P51681 whole entry): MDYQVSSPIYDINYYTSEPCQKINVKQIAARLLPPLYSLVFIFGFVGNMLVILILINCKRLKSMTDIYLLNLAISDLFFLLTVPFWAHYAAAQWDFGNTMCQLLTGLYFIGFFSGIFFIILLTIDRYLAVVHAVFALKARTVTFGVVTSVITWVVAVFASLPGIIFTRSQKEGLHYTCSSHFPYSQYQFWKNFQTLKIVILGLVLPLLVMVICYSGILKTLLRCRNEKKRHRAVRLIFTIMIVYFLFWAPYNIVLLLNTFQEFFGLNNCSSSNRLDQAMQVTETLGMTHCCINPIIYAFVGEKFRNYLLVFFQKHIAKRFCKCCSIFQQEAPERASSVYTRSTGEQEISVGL
Description: Human CCR5 receptor-ligand binding assay. The conditions noted are these: CHO-Gα16-hCCR5 cells, 125I RANTES binding. The source says:
Human CCR5 Receptor-Ligand Binding Assay Protocol
Human CCR5 receptor (Genebank ID: 29169292) was cloned into mammalian expression vector, pTarget (Promega). The construct was transfected into CHO-Gα16 cells by using Fugene Reagent (Roche). Clones were selected under antibiotic pressure (G418 and Hygromycin) and sorted 4 times with a fluorescence activates cell sorter and a monoclonal antibody specific for CCR5 receptor (BD Biosciences Pharmigen, Mab 2D7, Cat. No. 555993). The clone with highest expression (100,000 copies per cell) was chosen for the binding assays.
Adherent cells in […] tissue culture flask (˜90% confluent) were harvested using 1 mM EDTA in PBS (phosphate-buffered saline) without Ca^2+ and Mg^2+. Cells were washed twice with PBS containing no Ca^2+ and Mg^2+. CHO-Gα16-hCCR5 cells were then resuspended (1×10^6/mL) in ice cold binding buffer (50 mM HEPES, 1 mM CaCl2, 5 mM MgCl2, 0.5% BSA, 0.05% NaN3, pH 7.24), pH 7.4), supplemented with freshly made 0.5% BSA and 0.05% NaN3.
Eighty μl CHO-Gα16-hCCR5 (1×10^6/mL) cells were added to 96 well plates. All dilutions were made in binding buffer (50 mM HEPES, 1 mM CaCl2, 5 mM MgCl2, 0.5% BSA, 0.05% NaN3, pH 7.24).
The plates were incubated on a cell shaker at RT for 2 h with a final concentration of 0.1 nM ^125I RANTES or ^125I MIP-1α or ^125I MIP-1β. The compound dilutions were made in PBS, 1% BSA. Total reaction volume was 100 μl per well. The test compounds were added to the cells prior to the addition of radioligand.
After incubation, the cells were harvested onto GF/C filter plates using Packard cell harvester. Filters were pretreated with 0.3% PEI/0.2% BSA for 30 min. The filter plate was washed rapidly 5 times with 25 mM HEPES, 500 mM NaCl, 1 mM CaCl2 and 5 mM MgCl2 adjusted to pH 7.1. Plates were dried in oven (70° C.) for 20 min, added with 40 μl scintillation fluid and sealed with Packard TopSeal-A. Packard Top Count was used to measure of the radioactivity for 1 min per well.
Total binding was determined with control wells added with radioisotope and buffer and the non-specific binding was determined using an excess cold RANTES to some of the control wells. Specific binding was determined by subtracting the non-specific form total binding. Results are expressed as the percentage of specific ^125I RANTES binding. IC50 values were determined using varying concentrations of the test ligand in triplicates and the data was analyzed using GraphPad Prism (GraphPad, San Diego, Calif.).
As to `CCCCC1CN(C[C@H]2CC[C@H](OCC)CC2)C(=O)CC12CCN(C1(C)CCN(C(=O)c3c(C)ncnc3C)CC1)CC2` (mixture of isomers) [I-1, 5-Butyl-9-[1-(4,6-dimethyl-pyrimidine-5-carbonyl)-4-methyl-piperidin-4-yl]-3-(4-ethoxy-cyclohexylmethyl)-3,9-diaza-spiro[5.5]undecan-2-one], the IC50 was found to be 30.4 nM.

Consider `CCCCC1CN(CC2CCC(OCC)CC2)C(=O)CC12CCN(C1(C)CCN(C(=O)c3c(C)ncnc3C)CC1)CC2` (single isomer, unassigned) [I-2], for which the half-inhibitory concentration (IC50) was determined as 26.8 nM.

Consider `CCCCC1CN(CC2CCC(OCC)CC2)C(=O)CC12CCN(C1(C)CCN(C(=O)c3c(C)ncnc3C)CC1)CC2` (single isomer, unassigned) [I-3], for which the 50% inhibitory concentration (IC50) amounted to 32.9 nM.

Regarding `CCCCC1CN(CC2CCOCC2)C(=O)CC12CCN(C1(C)CCN(C(=O)c3c(C)ncnc3C)CC1)CC2` (centres unmarked) [I-4], the half-maximal inhibitory concentration (IC50) stood at 17.2 nM.

`CCCCC1CN(C[C@H]2CC[C@H](OC)CC2)C(=O)CC12CCN(C1(C)CCN(C(=O)c3c(C)ncnc3C)CC1)CC2` (some centres unmarked) [I-5]: the concentration for half-maximal inhibition (IC50) turned out to be 20.8 nM.

`CCCCC1CN(CC2CCN(S(C)(=O)=O)CC2)C(=O)CC12CCN(C1(C)CCN(C(=O)c3c(C)ncnc3C)CC1)CC2` (centres unmarked) [I-6] registered an IC50 of 16.9 nM.

The molecule `CCCCC1CN(CC2CCN(C(C)=O)CC2)C(=O)CC12CCN(C1(C)CCN(C(=O)c3c(C)ncnc3C)CC1)CC2` (centres unmarked) [I-7] gave an IC50 of 51.7 nM.

`CCCCC1CN(CC2CCN(C(=O)OC)CC2)C(=O)CC12CCN(C1(C)CCN(C(=O)c3c(C)ncnc3C)CC1)CC2` (centres unmarked) [I-8, 4-{1-Butyl-9-[1-(4,6-dimethyl-pyrimidine-5-carbonyl)-4-methyl-piperidin-4-yl]-4-oxo-3,9-diaza-spiro[5.5]undec-3-ylmethyl}-piperidine-1-carboxylic acid methyl ester] had a half-inhibitory concentration (IC50) of 24.4 nM.

For `CCCCC1CN(C[C@H]2CC[C@@H](OCC)CC2)C(=O)CC12CCN(C1(C)CCN(C(=O)c3c(C)ncnc3C)CC1)CC2` (some centres unmarked) [I-9], the half-inhibitory concentration (IC50) came out at 32 nM.

With `CCCCC1CN(C[C@@H]2CCOC2)C(=O)CC12CCN(C1(C)CCN(C(=O)c3c(C)ccnc3C)CC1)CC2` (some centres unmarked) [I-10], the half-maximal inhibitory concentration (IC50) was determined as 24.9 nM.

Consider `CCCCC1CN(CC2CCCCO2)C(=O)CC12CCN(C1(C)CCN(C(=O)c3c(C)ncnc3C)CC1)CC2` (centres unmarked) [I-11], for which the half-inhibitory concentration (IC50) was 24.6 nM.

In the case of `CCCCC1CN(CC2CCOCC2)C(=O)CC12CCN(C1(C)CCN(C(=O)c3c(C)ccnc3C)CC1)CC2` (centres unmarked) [I-12], the IC50 turned out to be 13.7 nM.

In turn, `CCCCC1CN(CC2CCOCC2)C(=O)CC12CCN(C1(C)CCN(C(=O)c3c(C)cc(C#N)nc3C)CC1)CC2` (centres unmarked) [I-13] gave an IC50 of 19.7 nM.

In turn, `CCCCC1CN(C[C@H]2CCOC2)C(=O)CC12CCN(C1(C)CCN(C(=O)c3c(C)ccnc3C)CC1)CC2` (stereo partly drawn) [I-14, 5-Butyl-9-[1-(2,4-dimethyl-pyridine-3-carbonyl)-4-methyl-piperidin-4-yl]-3-[(R)-1-(tetrahydro-furan-3-yl)methyl]-3,9-diaza-spiro[5.5]undecan-2-one] showed an IC50 of 17.7 nM.

Molecule `CCCCC1CN(CC2CCC(O)CC2)C(=O)CC12CCN(C1(C)CCN(C(=O)c3c(C)ccnc3C)CC1)CC2` (centres unmarked) [I-15, 5-Butyl-9-[1-(2,4-dimethyl-pyridine-3-carbonyl)-4-methyl-piperidin-4-yl]-3-(4-hydroxy-cyclohexylmethyl)-3,9-diaza-spiro[5.5]undecan-2-one] returned an IC50 of 30.5 nM.
